# Values joined by “and” are separate entries in the source; they are usually repeats but may differ in a detail not shown here. Identical values can stand only once.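 Method: 48-hour compound exposure of cells in 96-well plates, five concentrations, linear interpolation of endpoints. Abbreviation: GI50, concentration required for 50% inhibition of growth. TGI marks complete inhibition of growth.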
# How the values were obtained:
# Test in all cases: NCI-60 cell line screen, 48 h
# A498 renal = tested on: A498 renal
# SF-295 CNS = tested on: SF-295 CNS
# SK-MEL-2 melanoma = tested on: SK-MEL-2 melanoma
# HOP-92 NSCLC = tested on: HOP-92 NSCLC
# SR leukemia = tested on: SR leukemia
# HCC-2998 colon = tested on: HCC-2998 colon
# MALME-3M melanoma = tested on: MALME-3M melanoma
# SF-268 CNS = tested on: SF-268 CNS
# SNB-75 CNS = tested on: SNB-75 CNS
Compound,GI50 (A498 renal),TGI (A498 renal),GI50 (SF-295 CNS),TGI (SF-295 CNS),GI50 (SK-MEL-2 melanoma),TGI (SK-MEL-2 melanoma),GI50 (HOP-92 NSCLC),TGI (HOP-92 NSCLC),GI50 (SR leukemia),TGI (SR leukemia),GI50 (HCC-2998 colon),TGI (HCC-2998 colon),GI50 (MALME-3M melanoma),TGI (MALME-3M melanoma),GI50 (SF-268 CNS),TGI (SF-268 CNS),GI50 (SNB-75 CNS),TGI (SNB-75 CNS)
CCn1cnc2c(Nc3cccc(Cl)c3)nc(N[C@@H]3CCCC[C@@H]3N)nc21,1.9 µM,3.93 µM,1.55 µM,4.51 µM,1.65 µM,3.43 µM,1.04 µM,3.57 µM,0.699 µM,3.94 µM,1.77 µM,4.35 µM,1.57 µM,3.21 µM,1.65 µM,3.89 µM,0.745 µM,2.23 µM
COC1=CC(c2ccc[nH]2)=N/C1=C\c1[nH]c(C)c(C(=O)CCCCC(=O)Nc2ccccc2)c1C,5.92 µM,20.6 µM,6.11 µM,29.2 µM,11.9 µM,26.7 µM,1.4 µM,3.37 µM,0.636 µM,3.69 µM,3.78 µM,16.7 µM,1.28 µM,3.16 µM,1.26 µM,2.72 µM,2.8 µM,11.4 µM
CCCc1nc2c(C)cc(-c3nc4ccccc4n3C)cc2n1Cc1ccc(-c2ccccc2C(=O)O)cc1,20.4 µM,> 100 µM,34.4 µM,> 100 µM,36.6 µM,97.3 µM,25.7 µM,> 100 µM,28.6 µM,> 100 µM,51.9 µM,> 100 µM,45.9 µM,> 100 µM,44.1 µM,> 100 µM,56 µM,> 100 µM
CCOC(=O)c1sc(=S)c2c(C(=O)OCC)c(C(=O)OCC)sc2c1C(=O)OCC,18.2 µM,33.9 µM,31.4 µM,94.8 µM,21.2 µM,44.7 µM,10.3 µM,23 µM,15 µM,35.4 µM,13.1 µM,28.7 µM,,,16.4 µM,33.9 µM,40.3 µM,> 100 µM
COc1ccc(/C(C)=N/OC(=O)c2c(-c3ccccc3Cl)noc2C)cc1CN1CCOCC1,,,,32.8 µM,,34.2 µM,,91.8 µM,,> 100 µM,,93.8 µM,,43.7 µM,,> 100 µM,,94 µM
COC(=O)CCC/C=C\C[C@H]1C=CC(=O)/C1=C/C[C@@H](O)C/C=C\CC(F)(F)F,2.47 µM,4.57 µM,2.51 µM,5.82 µM,2.55 µM,7.53 µM,3.27 µM,7.88 µM,0.384 µM,5.44 µM,2 µM,3.5 µM,2.39 µM,7.03 µM,2.84 µM,13.8 µM,12.4 µM,29.3 µM
CCOC(=O)c1sc(Nc2ccc(Cl)cc2)nc1C,1.79 µM,5.44 µM,1.69 µM,3.57 µM,2.1 µM,4.2 µM,0.346 µM,1.81 µM,,,1.75 µM,3.34 µM,1.61 µM,3.59 µM,1.72 µM,3.7 µM,1.43 µM,4.24 µM
COc1ccc2c(c1)CC[C@@H]1[C@@H]2CC[C@]2(C)C(c3ccco3)=C(C=O)C[C@@H]12,26.1 µM,64.8 µM,3.4 µM,12.8 µM,29.2 µM,88.1 µM,8.38 µM,28 µM,,,6.78 µM,26.3 µM,,,13.6 µM,> 100 µM,27.9 µM,> 100 µM
CSc1nc2sc3cc(Cl)ccc3n2c(=N)c1C#N,29.6 µM,> 100 µM,2.21 µM,16.1 µM,15.5 µM,48.5 µM,< 0.0468 µM,4.77 µM,17.6 µM,> 100 µM,18.5 µM,> 100 µM,14.7 µM,> 100 µM,14 µM,> 100 µM,2.27 µM,> 69.6 µM
COc1ccc(-c2ccc(C3CC(c4ccc(Cl)cc4)=NN3)o2)c([N+](=O)[O-])c1 (stereo not given),> 100 µM,> 100 µM,43.5 µM,> 100 µM,> 100 µM,> 100 µM,> 100 µM,> 100 µM,> 100 µM,> 100 µM,> 100 µM,> 100 µM,> 100 µM,> 100 µM,> 100 µM,> 100 µM,> 100 µM,> 100 µM
NS(=O)(=O)c1ccc(CCN=C=S)cc1,2.21 µM,7.99 µM,14.6 µM,27.8 µM,2.3 µM,5.84 µM,1.33 µM,3.36 µM,2.44 µM,> 100 µM,1.88 µM,3.55 µM,2.22 µM,5.35 µM,2.83 µM,10.1 µM,1.16 µM,3.16 µM
COc1ccc(/C=C/c2n[nH]c3ccc(N4CCOC4=O)cc23)cc1,3.57 µM,7.01 µM,3.44 µM,29.2 µM,2.53 µM,6.21 µM,4 µM,9.09 µM,0.461 µM,3.03 µM,2.3 µM,7.17 µM,4.3 µM,8.66 µM,3.64 µM,> 100 µM,2.5 µM,18 µM
Nc1ccc(/C=N/Nc2ccnc3c(N)cccc23)c2cccnc12,1.79 µM,3.3 µM,1.57 µM,3 µM,1.7 µM,3.25 µM,1.58 µM,3.14 µM,0.0336 µM,0.153 µM,1.81 µM,3.3 µM,,,,,1.74 µM,3.35 µM
O=[N+]([O-])c1nccn1COCCF,,,,> 100 µM,,> 100 µM,,> 100 µM,,> 100 µM,,,,> 100 µM,,> 100 µM,,> 100 µM
NCCNC(=S)S,,> 100 µM,,> 100 µM,,> 100 µM,,,,,,> 100 µM,,30 µM,,31.1 µM,,> 100 µM
CO[C@@H]1[C@H](OC(=O)NC(=O)CCl)CC[C@]2(CO2)[C@H]1[C@@]1(C)O[C@@H]1CC=C(C)C,38.6 µM,33.5 µM and 74 µM,6.62 µM and 4.21 µM,18.7 µM and 38 µM,23 µM,35.5 µM and 68.6 µM,,38.5 µM,6.76 µM,39.4 µM,,10.8 µM,4.16 µM,18.5 µM and 18.7 µM,20 µM,33.6 µM and 74.5 µM,,24.7 µM and 200 µM
COC(=O)[C@]1(C)CCC[C@@]2(C)C1CCC1=CC3(C(C)C)CCC12OO3 (stereo not given in full),,> 100 µM,,> 100 µM,,> 100 µM,,,,> 100 µM,,> 100 µM,,> 100 µM,,> 100 µM,,
Cc1[nH]c(=O)[nH]c(=O)c1CO,> 100 µM,> 100 µM,,,> 100 µM,> 100 µM,> 100 µM,> 100 µM,> 100 µM,> 100 µM,> 100 µM,> 100 µM,> 100 µM,> 100 µM,> 100 µM,> 100 µM,> 100 µM,> 100 µM

Compound,GI50 (A498 renal),TGI (A498 renal),GI50 (SF-295 CNS),TGI (SF-295 CNS),GI50 (SK-MEL-2 melanoma),TGI (SK-MEL-2 melanoma),GI50 (HOP-92 NSCLC),TGI (HOP-92 NSCLC),GI50 (SR leukemia),TGI (SR leukemia),GI50 (HCC-2998 colon),TGI (HCC-2998 colon),GI50 (MALME-3M melanoma),TGI (MALME-3M melanoma),GI50 (SF-268 CNS),TGI (SF-268 CNS),GI50 (SNB-75 CNS),TGI (SNB-75 CNS)
COc1ccc([N+](=O)[O-])c(S(=O)(=O)c2ccc(Cl)cc2)n1,,,13.1 µM,28 µM,11.4 µM,24.3 µM,2 µM,6.17 µM,3 µM,> 100 µM,8.38 µM,23.8 µM,2 µM,4.08 µM,4.57 µM,17.8 µM,11 µM,23.6 µM
Cn1cc(C2=C(c3cn(CCN)c4ccccc34)C(=O)NC2=O)c2ccccc21,7.79 µM,17.6 µM,5.54 µM,16.7 µM,5.12 µM,12.1 µM,,,4.8 µM,17 µM,7.22 µM,20.9 µM,5.99 µM,13.5 µM,7.41 µM,20.4 µM,0.587 µM,6.72 µM
O=C(/C=C\c1ccc(Cl)cc1Cl)c1cccs1,,39 µM,,37.9 µM,,35.5 µM,,69.1 µM,,> 100 µM,,,,42.9 µM,,53.3 µM,,42.2 µM
COc1cc(-c2cc(-c3nc4ccc(Cl)cc4[nH]3)[nH]n2)cc(OC)c1OC,2.1 µM,11 µM,2.35 µM,11.2 µM,,,,,3.32 µM,37.6 µM,5.98 µM,18.7 µM,2.58 µM,8.32 µM,3.6 µM,13.2 µM,2.71 µM,10.4 µM
NCc1nnn(Cc2ccccc2)c1N,,> 100 µM,,> 100 µM,,> 100 µM,,> 100 µM,,> 100 µM,,,,> 100 µM,,> 100 µM,,> 100 µM
CC(C)(C)C(=O)C1CC(=O)c2ccccc2C1=O (stereo not given),,91.3 µM,,> 100 µM,,33.1 µM,,66.5 µM,,,,> 100 µM,,31.4 µM,,69.7 µM,,31.3 µM
C1=Cc2nc1c(-c1ccncc1)c1ccc([n-]1)c(-c1ccncc1)c1nc(c(-c3ccncc3)c3ccc([n-]3)c2-c2ccncc2)C=C1.[Zn+2],,,,> 100 µM,,> 100 µM,,> 100 µM,,,,> 100 µM,,> 100 µM,,> 100 µM,,> 100 µM
OCC12C3C4C1C1C2C3C41CO (stereo not given),,> 100 µM,,> 100 µM,,,,> 100 µM,,,,> 100 µM,,> 100 µM,,> 100 µM,,
CCC(C)C(NC(=O)C1CCCN1C(=O)C(NC(=O)C(C)N)C(C)C)C(N)=O (stereo not given),> 100 µM,> 100 µM,> 100 µM,> 100 µM,> 100 µM,> 100 µM,> 100 µM,> 100 µM,,,,,52.3 µM,> 100 µM,> 100 µM,> 100 µM,> 100 µM,> 100 µM
O=C(Nc1c(O)[nH]c(=S)[nH]c1=O)c1ccc2ccccc2n1,,> 100 µM,,> 100 µM,,,,> 100 µM,,> 100 µM,,,,> 100 µM,,> 100 µM,,> 100 µM
COc1ccc(-c2nc(-c3nc4ccc(OC)cc4[nH]3)cc3c2[nH]c2ccccc23)cc1,3.34 µM,> 100 µM,,,3.31 µM,49.2 µM,,,4.29 µM,> 100 µM,6.57 µM,> 100 µM,27.5 µM,> 100 µM,4.9 µM,> 100 µM,,
COc1ccc(C2=NN(C(C)=O)C(c3cn(-c4ccccc4)nc3-c3ccc(Cl)cc3)C2)cc1 (stereo not given),99.5 µM,> 100 µM,13.2 µM,> 100 µM,> 100 µM,> 100 µM,2.4 µM,> 100 µM,,,> 100 µM,> 100 µM,,,6.2 µM,> 100 µM,9.08 µM,> 100 µM
Cc1ccc(Cl)c(NC(=O)C(=O)C(C(=O)c2ccncc2)C2OC(=O)c3ccccc32)c1 (stereo not given),,> 100 µM,,> 100 µM,,,,> 100 µM,,> 100 µM,,> 100 µM,,> 100 µM,,> 100 µM,,> 100 µM
COc1cc2nc(Nc3cccc(F)c3)nc(Nc3cc(C)[nH]n3)c2cc1OC,,,1.58 µM,3.04 µM,2.1 µM,4.08 µM,1.67 µM,3.21 µM,2.27 µM,8.36 µM,1.8 µM,3.28 µM,1.86 µM,3.55 µM,1.82 µM,3.46 µM,1.52 µM,2.95 µM
Cc1ccc(C)c(-c2csc(Nc3ccc(C)c(C)c3)n2)c1,,,57.9 µM,> 100 µM,> 100 µM,> 100 µM,29 µM,> 100 µM,> 100 µM,> 100 µM,> 100 µM,> 100 µM,> 100 µM,> 100 µM,29.8 µM,> 100 µM,15.8 µM,53.2 µM
C[C@@H]1C=C2C(=O)O[C@@H]3CC[C@H](C1)[C@]23O,,38.3 µM,13.6 µM,35.3 µM,,11.4 µM,,,3.51 µM,19.6 µM,16.9 µM,32.9 µM,4.18 µM,23.3 µM,5.24 µM,30.4 µM,3.33 µM,20.2 µM
Cc1ccc(C)c(NC(=O)CC/C(=N\NC(=O)C(N)=O)C(C)C(=O)c2ccc(O)cc2)c1 (stereo not given),,,,> 100 µM,,> 100 µM,,> 100 µM,,> 100 µM,,> 100 µM,,> 100 µM,,> 100 µM,,

# From PubChem BioAssay (NCI)
